Series [1] can be described thus: Hepatic metabolic stability (rat liver microsome method). Particulars: rat liver microsomes 0.5 mg/mL, test substance 1 μM, NADPH 1 mM, 37° C., 30 minutes. In kind it is in vitro ADME. Here is the method:
Metabolic stability in rat liver microsomes was evaluated by the following method. First, in 100 mM of potassium phosphate buffer solution (pH 7.4), liver microsomes (concentration at reaction: 0.5 mg/mL) and the test substance (concentration at reaction: 1 μM) were preincubated at 37° C. Five minutes later, 100 mM of potassium phosphate buffer (pH 7.4) solution of NADPH (concentration at reaction: 1 mM) was mixed thereto to start the reaction. After a predetermined time passed, acetonitrile was mixed to the reaction mixture to stop the reaction. Here, the reaction time was 0 and 30 minutes, and drug concentration measurement was performed for each time period using LC-MS. The % remaining value of the test compound was calculated from the value for 0 minutes and the value for 30 minutes, using the calculation formula below: % Remaining=(Value for 30 Minutes/Value for 0 Minutes)×100
The results of measuring the rat liver microsome metabolic Stability (% remaining for 30-minute reaction) for the test compound by the above method were evaluated in accordance with the following evaluated basis; A: a % remaining rate of 75% or more, B: 60% or more and less than 75%, C: 45% or more and less than 60%, and D: less than 45%.
(Liver microsomes are a subcellular fraction often used to study metabolism.)

The subject of series [2] is PDE4. Briefly: Evaluation of PDE4 inhibitory activity, scintillation proximity assay. In kind it is biochemical. The note with it: scintillation proximity assay. The method, boiled down:
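SPA with [2,8-3H]-cAMP and diluted PDE4 enzyme preparation in 50 mM Tris-HCl pH 7.4, 8.3 mM MgCl2, 1.7 mM EGTA, 3 mg/mL BSA, 120 min at room temperature. Product captured on ZnSO4-containing YSi-SPA beads, scintillation counted; IC50 from inhibition curves vs DMSO control and no-enzyme blank.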
(In general: In a scintillation proximity assay essentially only radioactivity close to the scintillant gives light.)

The mark [3] stands for this setting: read-out: PDE4 Inhibitory Activity (Evaluation 1; concentration for the inhibition rate of 50%).

The structures appear in SMILES notation. pIC50: −log10 of the molar value. Where two headings read alike, the source gives them in different places.

For the molecule `CC(C)(O)C(F)(F)Oc1ccc(-n2nccn2)c2oc(N3CC4CCC(C3)N4)nc12` [Example 322, 1-((2-(3,8-Diazabicyclo[3.2.1]octan-3-yl)-7-(2H-1,2,3-triazol-2-yl)benzo[d]oxazol-4-yl)oxy)-1,1-difluoro-2-methylpropan-2-ol], the “Residual ratio (% remaining for 30-minute reaction)” value in series [1] is “A (A: a % remaining rate of 75% or more)”. Also, the pIC50 in series [2] (setting [3]) is more than 7.00. In the same order, the values of `O=C(NCCO)c1ccc(-c2nccs2)c2oc(N3CC4CC(C3)N4)nc12` [Example 355, 2-(3,6-Diazabicyclo[3.1.1]heptan-3-yl)-N-(2-hydroxyethyl)-7-(thiazol-2-yl)benzo[d]oxazole-4-carboxamide] are “A (A: a % remaining rate of 75% or more)” and more than 7.00. In the same order, the values of `CC(C)(O)C(F)(F)Oc1ccc(-c2ccc(F)cn2)c2oc(N3CC4CC(C3)N4)nc12` [Example 329, 1-((2-(3,6-Diazabicyclo[3.1.1]heptan-3-yl)-7-(5-fluoropyridin-2-yl)benzo[d]oxazol-4-yl)oxy)-1,1-difluoro-2-methylpropan-2-ol] are “A (A: a % remaining rate of 75% or more)” and more than 7.00. For `FC(F)(F)c1ccc(Oc2cc(-c3nccs3)c3oc(N4CC5CC(C4)N5)nc3c2)nc1` [Example 413, 2-(3,6-Diazabicyclo[3.1.1]heptan-3-yl)-7-(thiazol-2-yl)-5-((5-(trifluoromethyl)pyridin-2-yl)oxy)benzo[d]oxazole], in that order: “A (A: a % remaining rate of 75% or more)” and more than 7.00. Take `Cn1ccc(-c2ccc(OC(F)(F)C(C)(C)O)c3nc(N4CC5CC(C4)N5)oc23)n1` [Example 394, 1-((2-(3,6-Diazabicyclo[3.1.1]heptan-3-yl)-7-(1-methyl-1H-pyrazol-3-yl)benzo[d]oxazol-4-yl)oxy)-1,1-difluoro-2-methylpropan-2-ol]: in series [1], the “Residual ratio (% remaining for 30-minute reaction)” value is reported as “A (A: a % remaining rate of 75% or more)”. For the same molecule, in series [2] (setting [3]), the pIC50 is 6.00 to 7.00. In the same order, the values of `c1csc(-c2ccc(OC3CCOCC3)c3nc(N4CC5CC(C4)N5)oc23)n1` [Example 294, 2-(3,6-Diazabicyclo[3.1.1]heptan-3-yl)-4-((tetrahydro-2H-pyran-4-yl)oxy)-7-(thiazol-2-yl)benzo[d]oxazole] are “A (A: a % remaining rate of 75% or more)” and more than 7.00. On to `FC(F)(F)c1c(Cl)cc(-c2ccccn2)c2oc(N3CC4CCCC(C3)N4)nc12` [Example 12, 2-(3,9-Diazabicyclo[3.3.1]nonan-3-yl)-5-chloro-7-(pyridin-2-yl)-4-(trifluoromethyl)benzo[d]oxazole], for which, in series [1], the “Residual ratio (% remaining for 30-minute reaction)” value is “B (B: 60% or more and less than 75%)”. Also, the pIC50 in series [2] (class symbols of Evaluation 1, read-out: PDE4 Inhibitory Activity (concentration for the inhibition rate of 50%, IC50), Evaluation 1) was more than 7.00.

With `CC(C)(O)C(F)(F)Oc1ccc(-c2ccc(F)cn2)c2oc(N3CC4CCC(C3)N4)nc12` [Example 332, 1-((2-(3,8-Diazabicyclo[3.2.1]octan-3-yl)-7-(5-fluoropyridin-2-yl)benzo[d]oxazol-4-yl)oxy)-1,1-difluoro-2-methylpropan-2-ol], in series [1], the “Residual ratio (% remaining for 30-minute reaction)” value is reported as “A (A: a % remaining rate of 75% or more)”. Moreover, the pIC50 in series [2] (setting [3]) was more than 7.00.

`CC(C)(O)C(F)(F)Oc1ccc(-n2cccn2)c2oc(N3CC4CC(C3)N4)nc12` [Example 304, 1-((2-(3,6-Diazabicyclo[3.1.1]heptan-3-yl)-7-(1H-pyrazol-1-yl)benzo[d]oxazol-4-yl)oxy)-1,1-difluoro-2-methylpropan-2-ol]: the “Residual ratio (% remaining for 30-minute reaction)” value in series [1] is given as “A (A: a % remaining rate of 75% or more)”. Further, the pIC50 in series [2] (setting [3]) was more than 7.00. For the molecule `c1cc(-c2nccs2)c2oc(N3CC4CC(C3)N4)nc2c1` [Example 382, 2-(3,6-Diazabicyclo[3.1.1]heptan-3-yl)-7-(thiazol-2-yl)benzo[d]oxazole], the “Residual ratio (% remaining for 30-minute reaction)” value in series [1] was “B (B: 60% or more and less than 75%)”. The pIC50 in series [2] (setting [3]) was more than 7.00.

With `C[S+]([O-])c1ccc(-c2nccs2)c2oc(N3CC4CC(C3)N4)nc12` (stereo not drawn) [Example 346, 2-(3,6-Diazabicyclo[3.1.1]heptan-3-yl)-4-(methylsulfinyl)-7-(thiazol-2-yl)benzo[d]oxazole], in series [1], the “Residual ratio (% remaining for 30-minute reaction)” value is on record as “A (A: a % remaining rate of 75% or more)”. Further, the pIC50 in series [2] (setting [3]) is more than 7.00. Turning to `CCC(O)C(F)(F)Oc1ccc(-c2nccs2)c2oc(N3CC4CC(C3)N4)nc12` (stereo not drawn) [Example 395, 1-((2-(3,6-Diazabicyclo[3.1.1]heptan-3-yl)-7-(thiazol-2-yl)benzo[d]oxazol-4-yl)oxy)-1,1-difluorobutan-2-ol], the “Residual ratio (% remaining for 30-minute reaction)” value in series [1] was “B (B: 60% or more and less than 75%)”. The pIC50 in series [2] (setting [3]) is more than 7.00. Consider `FC(F)(F)Oc1ccc(Oc2ccc(-c3nccs3)c3oc(N4CC5CC(C4)N5)nc23)nc1` [Example 343, 2-(3,6-Diazabicyclo[3.1.1]heptan-3-yl)-7-(thiazol-2-yl)-4-((5-(trifluoromethoxy)pyridin-2-yl)oxy)benzo[d]oxazole], for which, in series [1], the “Residual ratio (% remaining for 30-minute reaction)” value was “B (B: 60% or more and less than 75%)”. In addition, the pIC50 in series [2] (setting [3]) was more than 7.00. As for `c1csc(-c2ccc(OC3CCOCC3)c3nc(N4CC5CCC(C4)N5)oc23)n1` [Example 254, 2-(3,8-Diazabicyclo[3.2.1]octan-3-yl)-4-((tetrahydro-2H-pyran-4-yl)oxy)-7-(thiazol-2-yl)benzo[d]oxazole], in series [1], the “Residual ratio (% remaining for 30-minute reaction)” value is given as “A (A: a % remaining rate of 75% or more)”. Moreover, the pIC50 in series [2] (setting [3]) was more than 7.00.

For `CS(=O)(=O)c1ccc(-c2nccs2)c2oc(N3CC4CC(C3)N4)nc12` [Example 347, 2-(3,6-Diazabicyclo[3.1.1]heptan-3-yl)-4-(methylsulfonyl)-7-(thiazol-2-yl)benzo[d]oxazole], in series [1], the “Residual ratio (% remaining for 30-minute reaction)” value was “A (A: a % remaining rate of 75% or more)”. Moreover, the pIC50 in series [2] (setting [3]) is more than 7.00. For `OCC(F)(F)Oc1ccc(-c2ccccn2)c2oc(N3CC4CC(C3)N4)nc12` [Example 315, 2-((2-(3,6-Diazabicyclo[3.1.1]heptan-3-yl)-7-(pyridin-2-yl)benzo[d]oxazol-4-yl)oxy)-2,2-difluoroethan-1-ol], in that order: “A (A: a % remaining rate of 75% or more)” and more than 7.00.

As to `CC(O)(CO)C(F)(F)Oc1ccc(-c2nccs2)c2oc(N3CC4CC(C3)N4)nc12` (racemic) [Example 326, 3-((2-(3,6-Diazabicyclo[3.1.1]heptan-3-yl)-7-(thiazol-2-yl)benzo[d]oxazol-4-yl)oxy)-3,3-difluoro-2-methylpropane-1,2-diol], in series [1], the “Residual ratio (% remaining for 30-minute reaction)” value is recorded as “A (A: a % remaining rate of 75% or more)”. Further, the pIC50 in series [2] (setting [3]) was more than 7.00. For `FC(F)(F)C(OCc1nnn[nH]1)c1ccc(-c2nccs2)c2oc(N3CC4CCC(C3)N4)nc12` (stereo not drawn) [Example 230, 4-(1-((1H-tetrazol-5-yl)methoxy)-2,2,2-trifluoroethyl)-2-(3,8-diazabicyclo[3.2.1]octan-3-yl)-7-(thiazol-2-yl)benzo[d]oxazole], in that order: “A (A: a % remaining rate of 75% or more)” and more than 7.00. Regarding `c1csc(-c2ccc(N3CCOCC3)c3nc(N4CC5CC(C4)N5)oc23)n1` [Example 369, 2-(3,6-Diazabicyclo[3.1.1]heptan-3-yl)-4-morpholino-7-(thiazol-2-yl)benzo[d]oxazole], the “Residual ratio (% remaining for 30-minute reaction)” value in series [1] is “B (B: 60% or more and less than 75%)”. Further, the pIC50 in series [2] (setting [3]) was more than 7.00. On to `c1ccc(Oc2ccc(-c3nccs3)c3oc(N4CC5CC(C4)N5)nc23)nc1` [Example 337, 2-(3,6-Diazabicyclo[3.1.1]heptan-3-yl)-4-(pyridin-2-yloxy)-7-(thiazol-2-yl)benzo[d]oxazole], for which the “Residual ratio (% remaining for 30-minute reaction)” value in series [1] is “B (B: 60% or more and less than 75%)”. Take `O=S(=O)(c1ccc(-c2nccs2)c2oc(N3CC4CC(C3)N4)nc12)N1CCCC1` [Example 390, 2-(3,6-Diazabicyclo[3.1.1]heptan-3-yl)-4-(pyrrolidin-1-ylsulfonyl)-7-(thiazol-2-yl)benzo[d]oxazole]: the pIC50 in series [2] (setting [3]) is more than 7.00.

As for `OC1(c2cc(-c3cscn3)c3oc(N4CC5CC(C4)N5)nc3c2OC(F)(F)F)CC1` [Example 299, 1-(2-(3,6-Diazabicyclo[3.1.1]heptan-3-yl)-7-(thiazol-4-yl)-4-(trifluoromethoxy)benzo[d]oxazol-5-yl)cyclopropan-1-ol], in series [2] (setting [3]), the pIC50 is more than 7.00. Take `CCC(O)c1cc(-c2nccs2)c2oc(N3CC4CCC(C3)N4)nc2c1OC(F)(F)F` (stereo not drawn) [Example 204, 1-(2-(3,8-Diazabicyclo[3.2.1]octan-3-yl)-7-(thiazol-2-yl)-4-(trifluoromethoxy)benzo[d]oxazol-5-yl)propan-1-ol]: the pIC50 in series [2] (setting [3]) was more than 7.00.
